Here are results for six substances from patent publication US10804000B2, “High efficiency continuous-flow production of radioisotopes” (priority 2016, dated 2020).

Series [1] in a line: Pre-irradiation solubility tests of lanthanide complexes in the water capture matrix (neutron activation analysis of washes). The following applies: for % Activity in wash 1: first pre-irradiation wash with 0.5 mL ultra-pure H2O, 153Sm at 103 keV, 166Ho at 81 keV; for % Activity in wash 1 / % Activity in wash 2: indicates solubility in capture matrix; for solubility in water: in words, from pre-irradiation washes; for % Activity in wash 2: second pre-irradiation wash with H2O. The series is classed as physicochemical. As for the experimental part: The solubility of the lanthanide complexes in the water capture matrix was determined by mixing a few milligrams of the lanthanide-containing target solid thoroughly with 0.5 mL of ultra-pure H2O then separating the solution from the solid utilizing centrifugal filter tubes (EMD Millipore). A second wash of the solid was obtained using the same procedure. The solid and the washes were submitted for neutron activation analysis in order to determine the solubility of the lanthanide containing target in H2O.
Post irradiation, the samples were left to cool for a predetermined amount of time to allow any short-lived radioisotopes to decay, before being transferred to the laboratory for treatment and analysis. The capture matrix was filtered and separated from the solid in order to separate any recoiled radiolanthanide. The solid residue and capture matrix were collected for analysis of the activity of the radiolanthanide. The pre-irradiation solubility test washes along with standards were also prepared for analysis. The samples were analyzed for radiolanthanide activity using a High Purity Germanium detector (HPGe) at the representative gamma energy of the radiolanthanide of interest.
All the samples for a particular compound were irradiated as a group, along with standards for calibration purposes and direct comparisons of activities. In samples that were not treated post irradiation by separation (e.g. as in the case of target and capture matrix) the activity of the radiolanthanide is directly related to the total concentration of the corresponding lanthanide. The count rate measured in each sample was normalized to a single point in time to account for decay during measurements. Both pre-irradiation washes were collected to give an indication of the solubility of the lanthanide complex in the capture matrix (H2O). The second wash was obtained to determine if the lanthanide activity detected in the first wash was actually due to solubility of the lanthanide containing target or due to factors such as impurities or the presence of uncomplexed lanthanide that came off in the first wash. […] Radiolanthanides that recoiled out but reformed bonds with the solid compound would appear as retained as well. […] Activity in the capture matrix may also reflect dissolution of the target matrix rather than recoil.

A short description of series [2]: Irradiation of ammonium molybdate phosphate powder, 99Mo activity in washes, target and capture matrix. From the text: Wash 1, Wash 2, and the irradiated molybdenum target were all analyzed for ^99Mo activity using gamma spectroscopy at the prominent ^99Mo peak of 141 KeV.
Post irradiation the capture matrix was separated from the irradiation target and washed an additional time to determine post irradiation solubility (wash 1).

For the substance Holmium 4-aminobenzoate [Compound 6], in series [1], the “% Activity in wash 1” value is 7.0 ± 1.6%, the solubility in water result is given as “soluble in water” and the “% Activity in wash 2” value worked out at 7.7 ± 1.7%.
In the case of “Holmium 8-hydroxyquinolinate [Compound 5]”, in series [1], the solubility in water result is “low solubility in the first wash”.
In the case of Samarium 4-aminobenzoate [Compound 2], in series [1], the “% Activity in wash 1” value came to 27.3 ± 3.0%, the solubility in water entry is “soluble in water” and the “% Activity in wash 2” value stood at 26.8 ± 2.9%.
“Samarium 8-hydroxyquinolinate [Compound 4]”: the solubility in water result in series [1] is listed as “low”.
Turning to ammonium molybdate phosphate [Sample 1], the “% Activity in wash 1” value in series [2] (99Mo, sample 1: powder irradiated 15 min at 8×10^11 n cm^−2 s^−1, contacted with water post irradiation) is below 1%. In addition, the “% Activity in wash 2” value in series [2] (99Mo, sample 1: powder irradiated, contacted with water post irradiation) is below 1%. Also, the “99Mo activity detected in the capture matrix” value in series [2] (sample 1, water contacted post irradiation) is on record as “less than 1%”.
For the substance ammonium molybdate phosphate [Sample 2], the “% Activity in wash 1” value in series [2] (99Mo, sample 2: irradiated in contact with water capture matrix, additional wash post irradiation) is 1.3%.
